SMILES strings stand for the structures.

The values that follow come from paper PMC7667534, “Calixarbutin: A Novel Calixarene-based Potential Water-soluble Anti-tyrosinase Agent with High Anti-melanoma Activity” (Iranian Journal of Pharmaceutical Research : IJPR, 2020).

For experiment [1], the target named is Mushroom tyrosinase. The experiment is described as follows: DOPA-chrome assay with L-DOPA ([…]), mushroom tyrosinase […] U/mL, absorbance at […] nm; reference inhibitor measured by the authors. Format: biochemical. The settings on record: read-out: Anti-tyrosinase activity (IC50).
Experiment [2] concerns the target Mushroom tyrosinase. The experiment is described as follows: DOPA-chrome assay with L-DOPA ([…]), mushroom tyrosinase […] U/mL, absorbance at […] nm. Format: biochemical. Particulars: read-out: Anti-tyrosinase activity (IC50).

A word on the IC50: it is the concentration at which inhibition is half-maximal. Regarding `OC[C@H]1O[C@@H](Oc2ccc(O)cc2)[C@H](O)[C@@H](O)[C@@H]1O` [Arbutin], the IC50 on Mushroom tyrosinase [1] stood at 168 ± 7 µM.

For the molecule `OC[C@H]1O[C@@H](Oc2c3cc(O)cc2Cc2cc(O)cc(c2O[C@@H]2O[C@H](CO)[C@@H](O)[C@H](O)[C@H]2O)Cc2cc(O)cc(c2O[C@@H]2O[C@H](CO)[C@@H](O)[C@H](O)[C@H]2O)Cc2cc(O)cc(c2O[C@@H]2O[C@H](CO)[C@@H](O)[C@H](O)[C@H]2O)C3)[C@H](O)[C@@H](O)[C@@H]1O` [compound 4], the IC50 on Mushroom tyrosinase [2] is 26 ± 1 µM.
